Data on 3 compounds can be found in US20220204491A1, “FXR (NR1H4) MODULATING COMPOUNDS” (Gilead Sciences, Inc., priority 2019, published 2022).

Like-named read-outs stand apart in the source and are kept apart here.

This series in a line: Drug concentration in plasma of cynomolgus monkey (LC/MS/MS). In kind it is in vivo. The following applies: male cynomolgus monkey, read-out: GS-AUClast. As to the method: Oral solution doses of Formula (I) (Example 1) were formulated at concentrations of 1 mg/mL in aqueous suspensions of 1% sodium laurel sulfate (SLS), 1% ethanol, and 98% water at pH 2. Oral suspension doses of Comparative Example 1, and Comparative Example 2 were formulated at concentrations of 2.5 mg/mL in 1% hydyroxypropyl methylcellulose (HPMC), 0.5% Tween 80, and 98.5% water.
Intravenous doses of compounds of Formula (I) (Example 1), Comparative Example 1, and Comparative Example 2 were formulated at concentrations of 0.5 mg/mL in a vehicle including 5% DMSO, 15% NMP, 60% PEG 300 and water with 1.1 equivalents of NaOH.
Each dosing group consisted of three to six male Cynomolgus monkeys. At dosing, the animals weighed between 2.4 and 4.4 kg.
The oral test articles were administered to the monkeys via oral gavage at 2 mL/kg or nasogastric untubation at 5 mL/kg for a dose of 5 mg/kg. The intravenous test articles were administered as an approximately 30-minute infusion via an indwelling catheter in a saphenous or cephalic vein at approximately 2 mL/kg for a dose of 1 mg/kg.
Venous blood samples were taken at specified time points after dosing from each animal. The blood samples were collected and transferred into tubes containing potassium (K2) EDTA anticoagulant.
For analysis on an API 5000 LC/MS/MS system, an aliquot of 50 μL of each plasma sample was treated with 200 μL of acetonitrile (ACN) containing internal standard. The above solution was centrifuged at 5000 RPM for 10 minutes and 50 μL of supernatant was transferred to a clean 96-well plate, followed by the addition of 200 μL of water. An aliquot of 10 μL was injected to the API 5000 LC/MS/MS system.
For analysis on an Applied Biosystems API 5500 LC/MS/MS system, an aliquot of 20 μL of each plasma sample was treated with 120 μL acetonitrile (ACN) containing internal standard. The above solution was centrifuged and 100 μL of supernatant was transferred to a clean 96-well plate, followed by the addition of 100 μL of water. An aliquot of 7-10 μL was injected to the API 5500 LC/MS/MS system.
A Zorbax Extend C18 HPLC column (50×2.1 mm, 3.5 μm) from Agilent Technologies (Part #735700-902) (Comparative Example 1, and Comparative Example 2) or a Waters BEH C18 column (50×2.1 mm, 1.7 μm) (Example 1) was used. For the Zorbax Extend C18 HPLC column, mobile phase A contained an aqueous solution of 1% acetonitrile in 10 mM ammonium formate adjusted to pH 3.0 with formic acid and mobile phase B contained and 10% 10 mM ammonium formate in acetonitrile adjusted to pH 4.6 with formic acid. For the Waters BEH C18 column, mobile phase A contained 95% water, 5% acetonitrile, and 0.1% formic acid and mobile phase B contained 50% methanol, 50% acetonitrile, and 0.1% formic acid. A Thermo Aria multiplexer with two identical Agilent 1200 series binary pumps (P/N G1312A Bin Pump) was used for elution and separation. The elution programs used are set forth in the following Table 2 for the Zorbax Extend C18 HPLC and Table 3 for the Waters BEH C18 column.
An API 5000 triple quadrupole mass spectrometer from AB Sciex, Foster City, Calif. was used in multiple reaction monitoring mode to quantify the compounds.
Activation of the Farnesoid X receptor in the distal small intestine as well as systemically in organs such as the liver, directly causes the expression and secretion of FGF19. Plasma FGF levels were evaluated as a pharmacodynamics marker of FXR activation in male cynomolgus monkeys following administration of oral and intravenous administration of doses of Example 1, Comparative Example 1, or Comparative Example 2. The difference between levels of FGF19 following oral administration (PO) versus intravenous administration (IV) were used to compare the degree of intestinal FXR agonism (via analysis of PO data) and systemic FXR agonism (via analysis of IV data) for each compound administered. […]

With `O=C(O)c1ccc(N2CC(O)(c3ccc(OCc4c(-c5c(Cl)cccc5Cl)noc4C4CC4)cc3Cl)C2)nc1` [Comparative Example 2], the AUC(0-t) by setting is: (IV infusion, 1 mg/kg) 3.14 µM·h; (PO, 5 mg/kg) 0.643 µM·h.

In the case of `O=C(O)c1cnc(N2CC(O)(c3ccc(OCc4c(-c5c(Cl)cc(F)cc5Cl)noc4C4CC4)cc3Cl)C2)c(F)c1` [Comparative Example 1, 6-(3-(2-chloro-4-((5-cyclopropyl-3-(2,6-dichloro-4-fluorophenyl)isoxazol-4-yl)methoxy)phenyl)-3-hydroxyazetidin-1-yl)-5-fluoronicotinic acid], the AUC(0-t) (IV infusion, 1 mg/kg) was 1.63 µM·h and the AUC(0-t) (PO, 5 mg/kg) stood at 1.67 µM·h.

Take `O=C(O)c1ccc(N2CC(O)(c3ccc(OCc4c(-c5c(Cl)cc(F)cc5Cl)noc4C4CC4)cc3Cl)C2)nc1` [Example 1, 6-(3-(2-chloro-4-((5-cyclopropyl-3-(2,6-dichloro-4-fluorophenyl)isoxazol-4-yl)methoxy)phenyl)-3-hydroxyazetidin-1-yl)nicotinic acid]: the AUC(0-t) (IV infusion, 1 mg/kg) is 3.15 µM·h and the AUC(0-t) (PO, 5 mg/kg) was found to be 2.25 µM·h.
